Assays:
Assay in all cases: Protocol A: agar deposit test, clarification zone
Type in all cases: cell-based
Enterococcus faecium = conditions: E. faecium; antibiotic disk
Procedure: (§1) The culture medium used was a mixture of 21 g/L of Muller-Hinton broth and 10 g/L of agar in water. This mixture was stirred and then left to boil. Next, a step of autoclaving of this mixture, for 30 minutes, was desired in this embodiment so as to sterilize it before any manipulation. This culture medium was poured hot into Petri dishes and then left to cool.
(§2) 5 mg of each modified sugar were dissolved in 1 mL of DMSO. Twofold serial dilution with DMSO was then performed using the stock solution, so as to obtain concentrations of 2.5 g/L, 1.25 g/L, 0.625 g/L and 0.3125 g/L.
(§3) The bacterial strains used were Pseudomonas aeruginosa, Escherichia Coli, Enterococcus faecium and Staphylococcus aureus, and also the fungal strain Candida albicans. 10^6 bacteria were taken and then transferred into 0.9% NaCl solution. Each Petri dish, containing Muller-Hinton medium, was flooded with a different bacterial suspension.
(§4) After allowing the bacterial suspensions to dry on the agar, 10 μL of each test solution, and at various concentrations, were deposited on the surface of the agar flooded with the bacterial suspension. 10 μL of DMSO were placed in each Petri dish as a negative control.
(§5) The positive controls used were disks soaked with ampicillin for Escherichia coli and Enterococcus faecium, ceftazidime disks for Pseudomonas aeruginosa and vancomycin disks for Staphylococcus aureus.
(§6) After drying, the Petri dishes were finally incubated at 37° C. in an oven, for 24 hours. The antibacterial activity was evaluated by measuring the clarification zone in millimeters around the point of deposition of the various test solutions.

Escherichia Coli = conditions: E. coli; for inhibitory activity on growth (in words): text summary of protocol A
Procedure: as §1, §2, §3, §4, §5, §6

Pseudomonas aeruginosa = conditions: P. aeruginosa; for inhibitory activity on growth (in words): text summary of protocol A
Procedure: as §1, §2, §3, §4, §5, §6

Staphylococcus aureus = conditions: S. aureus
Procedure: as §1, §2, §3, §4, §5, §6

Candida albicans = conditions: C. albicans; text summary of protocol A
Procedure: as §1, §2, §3
After allowing the bacterial suspensions to dry on the agar, 10 μL of each test solution, and at various concentrations, were deposited on the surface of the agar flooded with the bacterial suspension. […]
as §6

CC1(C)S[C@@H]2[C@H](NC(=O)[C@H](N)c3ccccc3)C(=O)N2[C@H]1C(=O)O [Ampicillin, reference compound]
clarification zone, positive control (Enterococcus faecium): 26 mm | clarification zone, positive control (Escherichia Coli; antibiotic disk): 22 mm

CC(C)(O/N=C(\C(=O)N[C@@H]1C(=O)N2C(C(=O)[O-])=C(C[n+]3ccccc3)CS[C@H]12)c1csc(N)n1)C(=O)O [Ceftazidime, reference compound]
clarification zone, positive control (Pseudomonas aeruginosa; antibiotic disk): 28 mm

CN[C@H](CC(C)C)C(=O)N[C@H]1C(=O)N[C@@H](CC(N)=O)C(=O)N[C@H]2C(=O)N[C@H]3C(=O)N[C@H](C(=O)N[C@H](C(=O)O)c4cc(O)cc(O)c4-c4cc3ccc4O)[C@H](O)c3ccc(c(Cl)c3)Oc3cc2cc(c3O[C@@H]2O[C@H](CO)[C@@H](O)[C@H](O)[C@H]2O[C@H]2C[C@](C)(N)[C@H](O)[C@H](C)O2)Oc2ccc(cc2Cl)[C@H]1O [Vancomycin, reference compound]
clarification zone, positive control (Staphylococcus aureus; antibiotic disk): 19 mm

N-(12 dodecyl)-n-butyl L-guluronamide
inhibitory activity on growth (in words) (Escherichia Coli): neither the N-(12 dodecyl)-n-butyl L-guluronamide nor the N-(18 octadecyl)-n-butyl L-guluronamide (whether in furanose or pyranose form) showed any inhibitory activity | inhibitory activity on growth (in words) (Pseudomonas aeruginosa): neither the N-(12 dodecyl)-n-butyl L-guluronamide nor the N-(18 octadecyl)-n-butyl L-guluronamide (whether in furanose or pyranose form) showed any inhibitory activity

N-(18 octadecyl)-n-butyl L-guluronamide
inhibitory effect (in words) (Candida albicans): no inhibitory effect | inhibitory effect (in words) (Staphylococcus aureus; text summary of protocol A): no inhibitory effect | inhibitory activity on growth (in words) (Escherichia Coli): neither the N-(12 dodecyl)-n-butyl L-guluronamide nor the N-(18 octadecyl)-n-butyl L-guluronamide (whether in furanose or pyranose form) showed any inhibitory activity | inhibitory activity on growth (in words) (Pseudomonas aeruginosa): neither the N-(12 dodecyl)-n-butyl L-guluronamide nor the N-(18 octadecyl)-n-butyl L-guluronamide (whether in furanose or pyranose form) showed any inhibitory activity

From US20190062362A1, “METHOD FOR OBTAINING SURFACTANT COMPOSITIONS MADE FROM ALKYL-L-GULURONAMIDES” (ÉCOLE NATIONALE SUPÉRIEURE DE CHIMIE, priority 2015, published 2019)
